From patent publication US20180303807A1, “ANDROGEN RECEPTOR LIGANDS” (DUKE UNIVERSITY, priority 2015, published 2018)
Residue numbers refer to the chain shown, from its start.

Assays:
Type in all cases: cell-based
AR [1] = target: T1, AR (Homo sapiens, UniProt P10275, T878A); assay: In Cell Western AR degradation assay in LNCaP cells; settings: 18 hrs, greater than 50% degradation at 10 μM (method says 20 μM)
T1 construct: endogenous in cells; host or cells: LNCaP cells
T1 sequence (P10275 1-920 T878A): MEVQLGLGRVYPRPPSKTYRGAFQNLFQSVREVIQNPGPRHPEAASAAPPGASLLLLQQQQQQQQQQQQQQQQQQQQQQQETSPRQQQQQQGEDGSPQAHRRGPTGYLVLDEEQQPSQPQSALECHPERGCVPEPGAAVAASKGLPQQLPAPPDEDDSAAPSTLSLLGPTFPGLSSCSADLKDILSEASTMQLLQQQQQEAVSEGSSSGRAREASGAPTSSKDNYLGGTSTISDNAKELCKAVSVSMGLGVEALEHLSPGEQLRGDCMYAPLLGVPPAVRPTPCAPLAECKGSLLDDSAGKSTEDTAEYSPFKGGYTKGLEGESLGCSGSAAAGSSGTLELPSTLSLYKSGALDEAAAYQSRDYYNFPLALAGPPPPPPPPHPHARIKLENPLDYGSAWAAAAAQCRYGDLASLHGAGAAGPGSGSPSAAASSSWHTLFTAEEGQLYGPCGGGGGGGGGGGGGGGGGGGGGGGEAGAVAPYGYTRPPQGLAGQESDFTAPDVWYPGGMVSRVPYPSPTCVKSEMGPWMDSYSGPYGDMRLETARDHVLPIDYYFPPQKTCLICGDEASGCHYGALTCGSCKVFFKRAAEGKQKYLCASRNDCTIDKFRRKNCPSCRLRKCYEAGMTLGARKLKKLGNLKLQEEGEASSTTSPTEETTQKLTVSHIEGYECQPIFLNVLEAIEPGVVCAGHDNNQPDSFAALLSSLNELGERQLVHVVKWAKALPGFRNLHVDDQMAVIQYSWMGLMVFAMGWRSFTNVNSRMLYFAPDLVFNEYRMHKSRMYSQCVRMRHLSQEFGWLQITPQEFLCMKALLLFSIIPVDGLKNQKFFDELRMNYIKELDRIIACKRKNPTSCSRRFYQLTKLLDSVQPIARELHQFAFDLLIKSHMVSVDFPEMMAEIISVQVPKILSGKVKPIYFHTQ
Description: In Cell Western (AR degradation Assay, Table 2, B10). LNCaP cells were plated in 96-well clear bottom black plates (20K cells/well) in RPMI supplemented with 8% CFS. Following 48 hr incubation, cells were treated with hormone (20 μM test compound) for 18 hrs. Cells were fixed with formaldehyde (3.7%) and permeabilized using PBS (0.1% TRITON X-100). Cells were incubated with anti-AR antibody (N20, 1:2000), washed with PBS (0.1% Tween), and stained with 2nd antibody (Biotium CF770 goat anti-rabbit, 1:2000). AR protein expression was assessed using the LI-COR Odyssey imaging system. DRAQ5 (DNA stain, 1:10,000, Thermo Scientific) was used to normalize AR protein expression.
For B4-B7, scoring system is based on the relative AR target gene agonist/antagonist activity of test compounds when compared to benchmark compounds enzalutamide or bicalutamide. […] The lack of agonist activity is desirable for therapies intended to treat CRPC. For B4 and B6, a score of 1 indicates less agonism (highly desired activity) than benchmark compound enzalutamide, a score of 2 indicates equal agonism to enzalutamide (desirable), a score of 3 indicates agonism between enzalutamide and bicalutamide (less desirable activity), a score of 4 indicates equal agonism to bicalutamide (liability), and a score of 5 indicates higher agonism than bicalutamide (liability). For B5 and B7 a score of 1 indicates higher antagonist efficacy (highly desired activity) than benchmark compound enzalutamide, a score of 2 indicates equal antagonist efficacy to enzalutamide (desirable), a score of 3 indicates antagonist efficacy between enzalutamide and bicalutamide (less desirable activity), a score of 4 indicates antagonist efficacy equal to bicalutamide (liability), and a score of 5 indicates antagonist efficacy worse than bicalutamide (liability) For B9, Compounds that degrade AR (greater than 50% degradation at 10 μM) are indicated.

AR [2] = target: T2, AR (Homo sapiens, UniProt P10275); assay: Reporter gene assay, AR transcriptional (MMTV-Luc) in CV1 cells; settings: pcDNA-AR + MMTV-Luc, 0.1 nM R1881 plus test compound, 24 hrs, read-out: B1 = AR transcriptional IC50 (μM) in CV1 cells
T2 construct: expressed in transfected cells; host or cells: CV1 cells
T2 sequence (P10275 1-920): T1 sequence (P10275 1-920 T878A) with A878T
Description: (§1) Reporter Gene Assay (IC50 determination, Table 2, B1-B3). CV1 cells were seeded into 96-well cell culture plates and transfected with Lipofectin. For AR transcriptional assays, the DNA mixture consisted of pcDNA-AR, MMTV-Luc (androgen responsive reporter gene), and Renilla-Luc (for assessing transfection efficiency and toxicity). Following overnight incubation, cells were induced with hormone (0.1 nM R1881 (synthetic AR agonist) plus increasing concentrations of test compound) for 24 hrs. Cells were lysed and luciferase activity was quantified using Dual Luciferase Reagent (DLR). IC50 determination was assessed using GraphPad Prism software.

CV1 cells = assay: Toxicity of test compound in the CV1 reporter gene assay (Renilla-Luc)
Description: as §1

| IC50 (AR [2]) | SMILES | B9 = AR degradation in LNCaP cells (In-Cell Western) (AR [1]) | B2 = % Toxicity of test compound (20 μM) (CV1 cells) | B3 = % Toxicity of test compound (60 μM) (CV1 cells) |
| --- | --- | --- | --- | --- |
| 7.4 µM | CC1(C)CC(=O)C2=C(C1)Nc1ccc3nccnc3c1C2c1ccc(F)c(F)c1 (racemic) [Compound A83, (±)-12-(3,4-difluorophenyl)-9,9-dimethyl-8,9,10,12-tetrahydropyrazino[2,3-a]acridin-11(7H)-one] | Degrader (Compounds that degrade AR (greater than 50% degradation at 10 μM) are indicated) |  |  |
| 55 µM | Cc1nc2ccc3c(c2nc1C)C(c1ccc(F)c(F)c1)C1=C(CC(C)(C)CC1=O)N3 (racemic) [Compound A84, (±)-12-(3,4-difluorophenyl)-2,3,9,9-tetramethyl-8,9,10,12-tetrahydropyrazino[2,3-a]acridin-11(7H)-one] | Degrader (Compounds that degrade AR (greater than 50% degradation at 10 μM) are indicated) |  |  |
| > 10 µM | O=C1C2=C(C(=O)c3ccccc31)C(c1ccc(F)c(F)c1)c1c(ccc3ncccc13)N2 (racemic) [Compound A85, (±)-14-(3,4-difluorophenyl)naphtho[2,3-b][4,7]phenanthroline-8,13(7H,14H)-dione] | Degrader (Compounds that degrade AR (greater than 50% degradation at 10 μM) are indicated) |  |  |
| 1.1 µM | CC1(C)CC(=O)C2=C(C1)Nc1ccc3ncccc3c1C2c1ccc(Cl)cc1Cl (racemic) [Compound A88, (±)-12-(2,4-dichlorophenyl)-9,9-dimethyl-8,9,10,12-tetrahydrobenzo[b][4,7]phenanthrolin-11(7H)-one] | Degrader (Compounds that degrade AR (greater than 50% degradation at 10 μM) are indicated) |  |  |
| > 10 µM | CC1(C)CC(=O)C2=C(C1)Nc1cc(N3CCCC3)ccc1C2c1ccc(F)c(F)c1 (racemic) [Compound A90, (±)-9-(3,4-difluorophenyl)-3,3-dimethyl-6-(pyrrolidin-1-yl)-3,4,9,10-tetrahydroacridin-1(2H)-one] | Degrader (Compounds that degrade AR (greater than 50% degradation at 10 μM) are indicated) |  |  |
| 1.4 µM | CC1(C)CC(=O)C2=C(C1)Nc1ccc3cnccc3c1C2c1ccc(F)c(F)c1 (racemic) [Compound A91, (±)-12-(3,4-difluorophenyl)-9,9-dimethyl-8,9,10,12-tetrahydrobenzo[j][3,7]phenanthrolin-11(7H)-one] | Degrader (Compounds that degrade AR (greater than 50% degradation at 10 μM) are indicated) |  |  |
| 0.9 µM | CC1(C)CC(=O)C2=C(C1)Nc1ccc3ncccc3c1C2c1cc2ccccc2s1 (racemic) [Compound A92, (±)-12-(benzo[b]thiophen-2-yl)-9,9-dimethyl-8,9,10,12-tetrahydrobenzo[b][4,7]phenanthrolin-11(7H)-one] | Degrader (Compounds that degrade AR (greater than 50% degradation at 10 μM) are indicated) |  |  |
| 1.2 µM | CC1(C)CC(=O)C2=C(C1)Nc1ccc3nccnc3c1C2c1cc2ccccc2s1 (racemic) [Compound A93, (±)-12-(benzo[b]thiophen-2-yl)-9,9-dimethyl-8,9,10,12-tetrahydropyrazino[2,3-a]acridin-11(7H)-one] | Degrader (Compounds that degrade AR (greater than 50% degradation at 10 μM) are indicated) |  |  |
| 12 µM | CC1(C)CC(=O)C2=C(C1)Nc1ccc3ccccc3c1C2c1cccnc1 (stereo not shown) [Compound A13] |  | 0% | 78% |
| > 10 µM | CC1(C)CC(=O)C2=C(C1)Nc1ccc3ccccc3c1C2c1c[nH]c2ccccc12 (stereo not shown) [Compound A14] |  | 0% | 0% |
| > 10 µM | O=C1CCCC2=C1C(c1ccc3c(c1)OCO3)c1c(ccc3ccccc13)N2 (stereo not shown) [Compound A15] |  | 0% | 0% |
| > 10 µM | CC1(C)CC(=O)C2=C(C1)Nc1ccc3ccccc3c1C2c1cc([N+](=O)[O-])c(O)cc1Cl (stereo not shown) [Compound A16] |  | 0% | 0% |
| > 10 µM | O=C1CCCC2=C1C(c1ccco1)c1c(ccc3ccccc13)N2 (stereo not shown) [Compound A17] |  | 0% | 36% |
| > 10 µM | CC1(C)CC(=O)C2=C(C1)Nc1ccc3ccccc3c1C2c1ccc(-c2nnc(N)s2)cc1 (stereo not shown) [Compound A19] |  | 0% | 87% |
| > 10 µM | O=C1CCCC2=C1C(c1ccc(O)cc1)c1c(ccc3ccccc13)N2 (stereo not shown) [Compound A20] |  | 0% | 0% |
| > 10 µM | O=C1CCCC2=C1C(c1cccc([N+](=O)[O-])c1)c1c(ccc3ccccc13)N2 (stereo not shown) [Compound A21] |  | 0% | 28% |
| > 10 µM | Cc1n[nH]c2c1C(c1ccc([N+](=O)[O-])cc1)C1=C(N2)C(C)(C)CCC1=O (stereo not shown) [Compound A23] |  | 0% | 0% |
| > 10 µM | CC1(C)CC(=O)C2=C(C1)Nc1ccc3ncccc3c1C2c1ccc(O)cc1 (stereo not shown) [Compound A24] |  | 0% | 35% |
| > 10 µM | O=[N+]([O-])c1ccc(C2C3=C(CCCC3)Nc3ccc4ccccc4c32)cc1 (stereo not shown) [Compound A25] |  | 23% | 42% |
